Data from patent US20250195498A1, “INHIBITOR OF CELLULAR PURINE NUCLEOTIDE SALVAGE PATHWAY ENZYME FOR USE IN THE TREATMENT AND/OR PREVENTION OF HELICOBACTER PYLORI INFECTION AND/OR DISEASE ASSOCIATED WITH SUCH INFECTION AND PHARMACEUTICAL COMPOSITION COMPRISING THE SAME” (UNIWERSYTET WARSZAWSKI, priority 2022, published 2025).
Converted amounts (≈) assume the structure as drawn. “And” between values parts separate entries of the source, which are not always exact repeats. Equal values may be shown once. Read-outs that look alike come from different tables or passages of the source.

Columns and labels:
Type in all cases: cell-based, Helicobacter pylori
[1] = tested on: H. pylori strain M93 (MTZ resistant); experiment: Growth curve method / MIC, resistant strain M93; conditions: Helicobacter pylori, strain M93, MTZ resistant
Procedure: (§1) The representative PNP inhibitor from H. pylori included in this study was immucillin A. The experiment was conducted using the growth curve method (two-fold serial dilutions in liquid medium). The tested H. pylori strains were cultured in Petri dishes with BHI solid medium supplemented with 10% FBS and 1% H. pylori Selective Supplement antibiotic kit, in anaerostats under microaerophilic conditions (5% 02, 10% CO2, 85% N2) at 37° C. for 3 days. Liquid culture of H. pylori was conducted overnight with shaking at 37° C. under microaerophilic conditions in BHI medium supplemented with 10% FBS and 1% H. pylori Selective Supplement antibiotic kit. Subsequently, for the essential experiment of determining the minimum inhibitory concentration (MIC), double strengthened liquid BHI medium was prepared, that is, supplemented with 20% FBS and a 2% set of H. pylori Selective Supplement antibiotics.
(§2) Bacterial proliferation inhibition experiments were carried out in 24-deep-well 2 ml flat-bottomed plates at a solution volume per well of 0.5 ml. In a single well, double strengthened (relative to the concentration planned for testing) solutions of the test inhibitor and double strengthened liquid BHI medium inoculated with H. pylori (10^4-10^5 CFU/ml in the final volume in the well, corresponding to the optical density of the culture OD600=0.05) were mixed together in a 1:1 ratio.
(§3) Kanamycin at a concentration of 25 μg/ml (Irie et al., 1997) was used as a positive control, while Mili-Q deionized water and BHI medium not inoculated with bacteria were used as negative controls. Plates were shaken at 37° C., under microaerophilic conditions. […] After 24 hours, the OD600 of samples containing the negative control, i.e. with Mili-Q deionized water, was about 1.2-1.4, corresponding to a bacterial concentration of about […].
(§4) In addition, the method proposed by Knezevic et al. (2018) was used to check whether the observed OD600 was from live bacterial cells. For this purpose, an equal volume of Christensen's double strength urea broth (that is, containing twice the concentration of all components) was added to the wells after incubation, and the plates were additionally incubated for 4 hours in an oxygen atmosphere at 37° C. During incubation, in wells with urease produced by live bacteria, urea is converted to ammonia and carbon dioxide, changing the pH of the solution and thus the colour of the phenol red indicator contained in the medium (from orange to purple).
(§5) All experiments were performed in triplicate.
(§6) The antibacterial activity of two compounds, mefloquine (in the form of hydrochloride) and quinine, described in the literature as potent in vitro inhibitors of the PNP enzyme from Plasmodium falciparum (Dziekan et al., 2019), was tested. Using a two-fold serial dilution method in liquid medium (as described in Example 3), the MIC values for mefloquine and quinine were determined against clinical H. pylori strains resistant to MTZ, CLR and MTZ+CLR (M26, M91, M92 and M93), as well as the reference H. pylori strain 26695. Four clinical H. pylori strains isolated from adults, from primary infections (the subjects had never previously been treated against H. pylori infection) were tested. These strains come from the collection of the Department of Microbiology of the Medical University of Wroclaw and were obtained due to collaboration with Prof. Grażyna Gościniak, MD, PhD. The tested compounds belong to organic substances and are soluble in DMSO. The maximum tested concentration of quinine in H. pylori culture was 0.56 mM, and that of mefloquine was 2.25 mM. […] On each occasion, the effect of DMSO alone on the growth of the H. pylori strains tested was also checked. […] Kanamycin was used as a positive control and Mili-Q deionised water as a negative control. All experiments were carried out in triplicate. […]

H. pylori strain P12 = experiment: Growth curve method / MIC, strain P12; conditions: Helicobacter pylori
Procedure: as §1, §2, §3, §4, §5
Inhibition by PLP and its metabolic precursors of the growth of H. pylori strains: 26695, N6 and P12 in culture was investigated using the growth curve method as described in Example 3. From these experiments, the minimum inhibitory concentration was determined as the lowest concentration of a compound that inhibits the visible growth of the bacteria, compared to growth in control samples without the tested compounds. All experiments were carried out in triplicate.

[2] = tested on: H. pylori strain M92 (CLR resistant); experiment: Growth curve method / MIC, resistant strain M92; conditions: Helicobacter pylori, strain M92, CLR resistant
Procedure: as §1, §2, §3, §4, §5, §6

H. pylori strain 26695 = experiment: Growth curve method / MIC in liquid culture, strain 26695; conditions: Helicobacter pylori
Method in brief: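 Two-fold serial dilutions in BHI liquid medium with 10% FBS and 1% H. pylori Selective Supplement, inoculated at 10^4-10^5 CFU/ml (OD600=0.05); shaken 24 h at 37° C. under microaerophilic conditions (5% O2, 10% CO2, 85% N2). MIC from OD600 growth; viability confirmed by 4 h urease/phenol red colour change; triplicate.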

[3] = strain 26695, wild-type, read-out: MIC (Table 7)

| Compound | MIC ([1]; read-out: MIC) | MIC ([1]; read-out: MIC (Table 7)) [µM] | MIC (H. pylori strain P12; P12, read-out: MIC (Table 7)) [µM] | MIC (H. pylori strain P12; strain P12, read-out: MIC) | MIC ([2]; read-out: MIC) | MIC ([2]; read-out: MIC (Table 7)) [µM] | MIC (H. pylori strain 26695; [3]) [µM] | MIC (H. pylori strain 26695; strain 26695, read-out: MIC) |
| --- | --- | --- | --- | --- | --- | --- | --- | --- |
| Cc1ncc(CO)c(C=O)c1O.Cl [PI-h, pyridoxal hydrochloride] | 255 µg/mL and 1250 µM | 1.25 | 2.5 | 509 µg/mL and 2500 µM | 509 µg/mL and 2500 µM | 2.5 | 2.5 | 509 µg/mL and 2500 µM |
| Cc1ncc(COP(=O)(O)O)c(C=O)c1O [PLP, pyridoxal 5′-phosphate] | 309 µg/mL and 1250 µM | 1.25 (≈ 0.309 µg/mL) | 2.5 (≈ 0.618 µg/mL) | 618 µg/mL and 2500 µM | 309 to 618 µg/mL | 1.25 to 2.5 | 2.5 (≈ 0.618 µg/mL) | 618 µg/mL and 2500 µM |
